According to US20100267697A1, “ION CHANNEL MODULATORS” (Wyeth, priority 2006, published 2010):
Counter-ions that a name gives are not always drawn. Like-named read-outs stand apart in the source and are kept apart here.

Target: T1, Cav2.2 (Homo sapiens, UniProt Q00975)
T1 construct: expressed in transfected cells; host or cells: HEK-293T/17 (transient, FuGENE 6)
Assay: HEK assay (whole-cell patch clamp, transiently transfected HEK-293T/17 cells, pulses P1 and P5)
Type: cell-based
Conditions: holding potential −100 mV
Experimental: HEK-293T/17 cells were transiently transfected in a similar manner as described in FuGENE 6 Package Insert Version 7, April 2002, Roche Applied Science, Indianapolis, Ind. The cells were plated at 2.5×10^5 cells in 2 mL in a 6-well plate, incubated for one night, and achieved a ˜30-40% confluence. In a small sterile tube, sufficient serum-free medium was added as diluent for FuGENE Transfection Reagent (Roche Applied Science, Indianapolis, Ind.) to a total volume of 100 μL. To this medium was added 3 μL of FuGENE 6 Reagent. The mixture was tapped gently to mix. To the prediluted FuGENE 6 Reagent was added 2 μg of DNA solution (0.8-2.0 μg/μL). The DNA/Fugene 6 mixture was gently pipeted to mix the contents and incubated for about 15 minutes at room temperature. The complex mixture was then added to the HEK-293T/17 cells, distributed around the well, and swirled to ensure even dispersal. The cells were returned to the incubator for 24 hours. The transfected cells were then replated at density 2.5×10^5 in a 35 mm dish with 5 glass coverslips and grew in low serum (1%) media for 24 hours. Coverslips with isolated cells were then transferred into a chamber, and calcium channel (e.g., L-type, N-type, etc.) current or other currents for counter screening were recorded from the transiently transfected HEK-293T/17 cells.
The whole-cell voltage clamp configuration of the patch clamp technique was employed to evaluate voltage-dependent calcium currents essentially as described by Thompson and Wong (1991), J. Physiol., 439: 671-689, the entire disclosure of which is herein incorporated by reference. To record calcium channel (e.g., L-type, N-type, etc.) currents for evaluation of inhibitory potency of compounds (steady-state concentration-response analysis), five pulses of 20-30 ms voltage steps to about +10 mV (the peak of the current voltage relationship) were delivered at five Hz every 30 second from a holding potential at −100 mV. In order to obtain an estimate of the degree of use-dependent block of the test compounds, IC50 values were determined at the first and fifth pulse of the train (P1 and P5, respectively, in Table 2). Compound evaluations were carried out essentially as described by Sah D. W. and Bean B. P. (1994), Mol. Pharmacol., 45:84-92, the entire disclosure of which is herein incorporated by reference.

[1] = fifth pulse (P5) of 5 Hz train, read-out: HEK Cav2.2 P5 IC50
[2] = first pulse (P1) of 5 Hz train, read-out: HEK Cav2.2 P1 IC50

T1 sequence (Q00975 whole entry): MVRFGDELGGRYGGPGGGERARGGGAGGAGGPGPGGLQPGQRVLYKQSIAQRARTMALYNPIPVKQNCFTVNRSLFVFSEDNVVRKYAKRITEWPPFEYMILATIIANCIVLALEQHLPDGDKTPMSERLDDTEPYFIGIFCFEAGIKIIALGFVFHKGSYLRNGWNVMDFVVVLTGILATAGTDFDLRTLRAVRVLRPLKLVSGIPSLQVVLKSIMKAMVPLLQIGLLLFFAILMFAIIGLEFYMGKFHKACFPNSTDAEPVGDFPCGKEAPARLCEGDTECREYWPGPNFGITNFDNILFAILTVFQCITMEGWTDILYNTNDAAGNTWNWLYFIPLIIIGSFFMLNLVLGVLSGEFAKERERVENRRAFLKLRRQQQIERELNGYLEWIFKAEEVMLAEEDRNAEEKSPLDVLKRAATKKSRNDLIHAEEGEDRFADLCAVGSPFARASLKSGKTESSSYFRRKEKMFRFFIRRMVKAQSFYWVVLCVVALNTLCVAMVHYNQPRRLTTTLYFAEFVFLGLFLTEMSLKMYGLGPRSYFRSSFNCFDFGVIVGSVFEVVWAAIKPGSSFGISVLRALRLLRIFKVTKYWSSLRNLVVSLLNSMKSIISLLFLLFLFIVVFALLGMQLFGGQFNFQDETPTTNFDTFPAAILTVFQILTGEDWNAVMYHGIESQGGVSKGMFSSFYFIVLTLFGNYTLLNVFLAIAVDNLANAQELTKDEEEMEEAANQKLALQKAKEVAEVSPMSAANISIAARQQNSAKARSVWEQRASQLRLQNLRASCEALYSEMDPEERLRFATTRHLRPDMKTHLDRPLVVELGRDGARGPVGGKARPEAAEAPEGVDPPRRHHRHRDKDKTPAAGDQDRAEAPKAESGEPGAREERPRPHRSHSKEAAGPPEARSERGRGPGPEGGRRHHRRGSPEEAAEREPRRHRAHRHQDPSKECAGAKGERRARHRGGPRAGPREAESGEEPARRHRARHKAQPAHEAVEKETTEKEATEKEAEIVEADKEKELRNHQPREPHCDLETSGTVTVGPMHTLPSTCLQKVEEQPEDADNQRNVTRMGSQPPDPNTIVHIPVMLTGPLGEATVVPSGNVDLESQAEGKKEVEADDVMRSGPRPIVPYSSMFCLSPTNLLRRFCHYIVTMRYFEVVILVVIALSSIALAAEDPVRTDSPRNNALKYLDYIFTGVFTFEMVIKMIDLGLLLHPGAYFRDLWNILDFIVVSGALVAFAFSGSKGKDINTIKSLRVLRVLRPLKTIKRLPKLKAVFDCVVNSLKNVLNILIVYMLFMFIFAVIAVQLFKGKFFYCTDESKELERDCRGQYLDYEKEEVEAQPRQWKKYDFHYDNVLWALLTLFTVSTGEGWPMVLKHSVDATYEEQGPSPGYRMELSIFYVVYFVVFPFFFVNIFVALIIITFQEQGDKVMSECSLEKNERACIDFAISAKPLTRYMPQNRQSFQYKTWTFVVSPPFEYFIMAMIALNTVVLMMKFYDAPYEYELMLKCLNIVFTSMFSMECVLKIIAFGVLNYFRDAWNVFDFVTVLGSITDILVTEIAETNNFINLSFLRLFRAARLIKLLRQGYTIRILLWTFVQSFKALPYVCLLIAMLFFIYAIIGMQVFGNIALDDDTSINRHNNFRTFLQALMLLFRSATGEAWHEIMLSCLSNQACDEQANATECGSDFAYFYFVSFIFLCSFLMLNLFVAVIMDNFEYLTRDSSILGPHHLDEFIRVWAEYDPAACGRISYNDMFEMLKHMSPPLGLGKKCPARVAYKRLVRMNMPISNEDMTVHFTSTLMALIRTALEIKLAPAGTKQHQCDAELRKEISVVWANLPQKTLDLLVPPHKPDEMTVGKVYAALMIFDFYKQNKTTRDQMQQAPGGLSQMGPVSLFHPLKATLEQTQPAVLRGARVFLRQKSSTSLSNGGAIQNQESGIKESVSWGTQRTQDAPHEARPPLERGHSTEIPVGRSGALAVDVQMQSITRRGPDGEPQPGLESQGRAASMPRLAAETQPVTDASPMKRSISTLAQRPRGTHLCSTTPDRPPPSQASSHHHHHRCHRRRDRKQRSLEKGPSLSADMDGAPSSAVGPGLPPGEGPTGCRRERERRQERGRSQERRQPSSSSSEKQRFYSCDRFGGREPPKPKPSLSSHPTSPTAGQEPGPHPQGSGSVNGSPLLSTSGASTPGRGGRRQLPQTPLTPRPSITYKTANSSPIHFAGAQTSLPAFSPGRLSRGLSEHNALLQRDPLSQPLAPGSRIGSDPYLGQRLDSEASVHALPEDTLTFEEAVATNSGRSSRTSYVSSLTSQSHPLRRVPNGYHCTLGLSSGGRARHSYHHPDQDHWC
T1 sequence (P54284 whole entry partner): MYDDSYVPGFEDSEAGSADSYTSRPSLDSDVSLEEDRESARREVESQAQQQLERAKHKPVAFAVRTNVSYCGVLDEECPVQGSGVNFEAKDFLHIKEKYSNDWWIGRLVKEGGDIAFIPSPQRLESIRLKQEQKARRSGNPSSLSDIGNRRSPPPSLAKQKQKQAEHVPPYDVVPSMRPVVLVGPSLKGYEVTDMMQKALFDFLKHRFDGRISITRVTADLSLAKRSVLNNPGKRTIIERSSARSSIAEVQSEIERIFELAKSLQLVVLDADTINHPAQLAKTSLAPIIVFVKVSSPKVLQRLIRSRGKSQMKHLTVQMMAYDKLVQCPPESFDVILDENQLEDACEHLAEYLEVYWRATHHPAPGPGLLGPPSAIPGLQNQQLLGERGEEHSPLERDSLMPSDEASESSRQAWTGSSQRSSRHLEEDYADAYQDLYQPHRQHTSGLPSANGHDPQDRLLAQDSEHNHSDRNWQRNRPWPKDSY
T1 sequence (P54289 25-946 partner limits assumed): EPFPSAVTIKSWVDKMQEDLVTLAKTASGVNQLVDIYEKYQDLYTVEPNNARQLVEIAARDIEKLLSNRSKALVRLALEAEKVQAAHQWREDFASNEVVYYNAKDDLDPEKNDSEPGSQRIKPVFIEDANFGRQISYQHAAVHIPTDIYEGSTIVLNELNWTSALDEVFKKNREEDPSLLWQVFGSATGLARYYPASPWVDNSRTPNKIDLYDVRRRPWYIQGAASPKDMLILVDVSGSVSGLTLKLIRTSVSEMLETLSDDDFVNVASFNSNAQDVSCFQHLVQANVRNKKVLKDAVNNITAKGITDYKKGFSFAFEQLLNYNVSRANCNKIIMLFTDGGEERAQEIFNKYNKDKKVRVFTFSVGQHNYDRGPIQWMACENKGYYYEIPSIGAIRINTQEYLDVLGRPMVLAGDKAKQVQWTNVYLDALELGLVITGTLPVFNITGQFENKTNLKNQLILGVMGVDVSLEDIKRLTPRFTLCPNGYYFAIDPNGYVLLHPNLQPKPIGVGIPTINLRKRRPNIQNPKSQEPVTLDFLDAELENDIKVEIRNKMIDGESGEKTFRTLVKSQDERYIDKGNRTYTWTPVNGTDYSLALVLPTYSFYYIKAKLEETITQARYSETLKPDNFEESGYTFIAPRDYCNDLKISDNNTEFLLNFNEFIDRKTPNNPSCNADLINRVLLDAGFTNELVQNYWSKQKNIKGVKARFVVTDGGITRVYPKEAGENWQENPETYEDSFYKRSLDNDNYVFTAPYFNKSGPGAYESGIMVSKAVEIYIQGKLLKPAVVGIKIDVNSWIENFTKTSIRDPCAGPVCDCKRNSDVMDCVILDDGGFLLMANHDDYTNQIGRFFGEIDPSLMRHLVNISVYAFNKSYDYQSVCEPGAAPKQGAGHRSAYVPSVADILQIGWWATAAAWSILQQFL
T1 sequence (P54289 947-1103 partner limits assumed): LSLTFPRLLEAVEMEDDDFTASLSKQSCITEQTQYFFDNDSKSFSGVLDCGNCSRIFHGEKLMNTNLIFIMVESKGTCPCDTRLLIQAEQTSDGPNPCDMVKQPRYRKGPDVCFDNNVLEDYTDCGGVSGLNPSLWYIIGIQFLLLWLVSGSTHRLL

Row | IC50 [1] [µM] | IC50 [2] [µM] | Structure (SMILES)
1 | 0.8 | 3.7 | CC(C)(C)C(=O)N(Cc1ccc(N2CC[C@H](Oc3ccccn3)C2)nc1)c1ccc(F)cc1 (stereo in doubt) [Compound 50, N-(4-Fluorophenyl)-2,2-dimethyl-N-{6-[3-(pyridin-2-yloxy)-pyrrolidin-1-yl]-pyridin-3-ylmethyl}-propionamide]
2 | 8.3 | 20.3 | CC(C)(C)C(=O)N(Cc1cnc(N2CCCC2)s1)c1ccc(F)cc1 [Compound 1, N-(4-fluorophenyl)-2,2-dimethyl-N-(2-pyrrolidin-1-yl-thiazol-5-ylmethyl)-propionamide hydrochloride]
3 | 0.8 | 2.9 | CCN(CC)c1cccc(CN(C(=O)C(C)(C)C)c2ccc(F)cc2)n1 [Compound 4, N-(6-diethylamino-pyridin-2-ylmethyl)-N-(4-fluorophenyl)-2,2-dimethyl-propionamide hydrochloride]
4 | 1.5 | 6.2 | CCN(c1cccc(CN(C(=O)C(C)(C)C)c2ccc(F)cc2)c1)C1CC1 [Compound 6, N-(3-(Cyclopropyl(ethyl)amino)-benzyl)-N-(4-fluorophenyl)-2,2-dimethyl-propionamide hydrochloride]
5 | 0.4 | 1 | CCN(c1ccc(CN(C(=O)C2CCN(Cc3ccccc3)CC2)c2ccc(F)cc2)cn1)C1CC1 [Compound 12, 1-benzyl-piperidine-4-carboxylic acid [6-(Cyclopropyl(ethyl)amino)-pyridin-3-ylmethyl]-(4-fluorophenyl)-amide dihydrochloride]
6 | 1.8 | – | CCN(c1ccc(CN(C(=O)CCC(C)C)c2ccc(F)cc2)cn1)C1CC1 [Compound 13, 4-methyl-pentanoic acid [6-(Cyclopropyl(ethyl)amino)-pyridin-3-ylmethyl]-(4-fluorophenyl)-amide hydrochloride]
7 | 0.6 | 10.1 | CCN(c1ccc(CN(C(=O)C2Cc3ccccc3CN2)c2ccc(F)cc2)cn1)C1CC1 (centres unmarked) [Compound 14, 1,2,3,4-tetrahydro-isoquinoline-3-carboxylic acid [6-(Cyclopropyl(ethyl)amino)-pyridin-3-ylmethyl]-(4-fluorophenyl)-amide dihydrochloride]
8 | 0.4 | 2.1 | CCN(c1ccc(CN(C(=O)C2Cc3ccccc3CN2C)c2ccc(F)cc2)cn1)C1CC1 (centres unmarked) [Compound 15, 2-methyl-1,2,3,4-tetrahydro-isoquinoline-3-carboxylic acid [6-(Cyclopropyl(ethyl)amino)-pyridin-3-ylmethyl]-(4-fluorophenyl)-amide dihydrochloride]
9 | 1.1 | – | CC(CC(=O)N(Cc1ccc(N(C)CCc2ccccn2)nc1)c1ccc(F)cc1)C(F)(F)F (centres unmarked) [Compound 23, 4,4,4-Trifluoro-N-(4-fluorophenyl)-3-methyl-N-{6-[methyl-(2-pyridin-2-yl-ethyl)-amino]-pyridin-3-ylmethyl}-butyramide]
10 | 1.3 | 3.5 | CCN(CC)c1ccc(CN(C(=O)C(C)(C)C)c2ccc(F)cc2C)cn1 [Compound 36, N-(6-Diethylamino-pyridin-3-ylmethyl)-N-(4-fluoro-2-methyl-phenyl)-2,2-dimethyl-propionamide]
11 | 0.7 | 1.8 | CCN(CC)c1ccc(CN(C(=O)C(C)(C)C)c2ccccc2C(C)C)cn1 [Compound 37, N-(6-Diethylamino-pyridin-3-ylmethyl)-N-(2-isopropyl-phenyl)-2,2-dimethyl-propionamide]
12 | 7.6 | 17.1 | CN(CCO)c1ccc(CN(C(=O)C(C)(C)C)c2ccc(F)cc2)cn1 [Compound 38, N-(4-Fluorophenyl)-N-{6-[(2-hydroxy-ethyl)-methyl-amino]-pyridin-3-ylmethyl}-2,2-dimethyl-propionamide]
13 | 0.5 | 1 | Cc1ccc(OCCN(C)c2ccc(CN(C(=O)C(C)(C)C)c3ccc(F)cc3)cn2)nc1 [Compound 39, N-(4-Fluorophenyl)-2,2-dimethyl-N-(6-{methyl-[2-(5-methyl-pyridin-2-yloxy)-ethyl]-amino}-pyridin-3-ylmethyl)-propionamide]
14 | 11.2 | 21 | Cc1ccc(OCCN(C)c2ccc(CN(C(=O)C(C)(C)C)c3ccc(F)cc3)cn2)nn1 [Compound 40, N-(4-Fluorophenyl)-2,2-dimethyl-N-(6-{methyl-[2-(6-methyl-pyridazin-3-yloxy)-ethyl]-amino}-pyridin-3-ylmethyl)-propionamide]
15 | 2 | 6.3 | CCN(Cc1ccncc1)c1ccc(CN(C(=O)C(C)(C)C)c2ccc(F)cc2)cn1 [Compound 41, N-[6-(Ethyl-pyridin-4-ylmethyl-amino)-pyridin-3-ylmethyl]-N-(4-fluorophenyl)-2,2-dimethyl-propionamide]
16 | 7.4 | 11.6 | CC(C)(C)C(=O)N(Cc1ccc(N2CCCC2)nc1)c1ccc(F)cc1 [Compound 42, N-(4-Fluorophenyl)-2,2-dimethyl-N-(6-pyrrolidin-1-yl-pyridin-3-ylmethyl)-propionamide]
17 | 3 | 10.2 | CCC(C)(C)C(=O)N(Cc1ccc(N2CCN(S(C)(=O)=O)CC2)nc1)c1ccc(F)cc1 [Compound 43, N-(4-Fluorophenyl)-N-[6-(4-methanesulfonyl-piperazin-1-yl)-pyridin-3-ylmethyl]-2,2-dimethyl-butyramide]
18 | 7.5 | 18.4 | CC(=O)N1CCN(c2ccc(CN(C(=O)C(C)(C)C)c3ccc(F)cc3)cn2)CC1 [Compound 44, N-[6-(4-Acetyl-piperazin-1-yl)-pyridin-3-ylmethyl]-N-(4-fluorophenyl)-2,2-dimethyl-propionamide]
19 | 2.5 | 10.6 | CCOC(=O)c1cn(C(C)(C)C(=O)N(Cc2ccc(N(CC)CC)nc2)c2ccc(F)cc2)nn1 [Compound 45, 1-{1-[(6-Diethylamino-pyridin-3-ylmethyl)-(4-fluorophenyl)-carbamoyl]-1-methyl-ethyl}-1H-[1,2,3]triazole-4-carboxylic acid ethyl ester]
20 | 1.6 | 9.5 | CN(CCOCc1cccnc1)c1ccc(CN(C(=O)C(C)(C)C)c2ccc(F)cc2)cn1 [Compound 47, N-(4-Fluorophenyl)-2,2-dimethyl-N-(6-{methyl-[2-(pyridin-3-ylmethoxy)-ethyl]-amino}-pyridin-3-ylmethyl)-propionamide]
21 | 4.2 | 19.8 | CC(C)(C)C(=O)N(Cc1ccc(N2CCCC2CO)nc1)c1ccc(F)cc1 (centres unmarked) [Compound 48, N-(4-Fluorophenyl)-N-[6-(2-hydroxymethyl-pyrrolidin-1-yl)-pyridin-3-ylmethyl]-2,2-dimethyl-propionamide]
22 | 0.6 | 2.3 | CC(C)(C)C(=O)N(Cc1ccc(N2CCC[C@H]2COc2ccccn2)nc1)c1ccc(F)cc1 [Compound 49, N-(4-Fluorophenyl)-2,2-dimethyl-N-{6-[2-(pyridin-2-yloxymethyl)-pyrrolidin-1-yl]-pyridin-3-ylmethyl}-propionamide]

Row | Structure (SMILES) | IC50 [1] [µM] | IC50 [2] [µM]
23 | CCN(CC)c1ccc(CN(C(=O)C(C)(C)C)c2ccc(F)cc2)cc1 [Compound 5, N-(4-Diethylaminobenzyl)-N-(4-fluorophenyl)-2,2-dimethyl-propionamide hydrochloride] | 1.1 | 2.9
